Earlier results, collected in patent US20100068291A1, “Oral Medicament Based on a Proton Pump Inhibitor” (FLAMEL TECHNOLOGIES, S.A., priority 2005, published 2010).

Settings: in vivo

plasma half-life: 0.5-1 H
Compound: COc1ccc2[nH]c([S+]([O-])Cc3ncc(C)c(OC)c3C)nc2c1 (stereo not shown) [omeprazole]
